Patent EP0565377B1, “Therapeutic agents for use in the treatment of Parkinson's Disease” (Kyowa Hakko Kogyo Co., Ltd., priority 1992, dated 1993)

What was measured:
[1] = tested on: dd-strain male mice; assay: Acute toxicity test (minimum lethal dose, oral); assay type: in vivo; conditions: oral administration, mortality seven days after administration, three mice per group
Description: Test compounds were orally administered to groups of dd-strain male mice weighing 20±1 g, each group consisting of three mice. Seven days after the administration, minimum lethal dose (MLD) of each compound was determined by observing the mortality.

[2] = tested on: Haloperidol-Induced Catalepsy; assay: Effect on haloperidol-induced catalepsy; assay type: in vivo, male ddY mice; conditions: Table 4-2, test compound 10 mg/kg orally
Description: The experiment was performed by using several groups of 5-weeks-old male ddY mice (weighing 22 to 24 g, Japan SLC), each group consisting of 5 mice. Haloperidol (Janssen Pharmaceutica) suspended in 0.3% CMC was intraperitoneally administered to each mouse at a dose of 1.0 mg/kg. Test compounds were suspended in 0.3% CMC or in injectable distilled water (Otsuka Pharmaceutical Co., Ltd.) containing Tween 80. L-DOPA (Kyowa Hakko Kogyo Co., Ltd.) and benserazide hydrochloride (Kyowa Hakko Kogyo Co., Ltd.) were suspended in 0.3% CMC. One hour after the haloperidol administration, the test compound suspensions and the control suspension [0.3% CMC or injectable distilled water (Otsuka Pharmaceutical Co., Ltd.) containing Tween 80] containing no test compound were orally administered to separate groups of the mice (0.1 ml per 10 g of body weight). One hour after the administration of the test compound, the forelimbs of each mouse and subsequently the hindlimbs of the same mouse were placed on a 4.5 cm-high, 1.0 cm-wide bar and catalepsy was estimated. All of the test compounds were orally administered at a dose of 10 mg/kg, and L-DOPA (100 mg/kg) and benserazide (25 mg/kg) were intraperitoneally administered together as a control experiment. The catalepsy score and the standard of judgment are shown below.
The effect of the compounds was evaluated by the total of the catalepsy scores of five mice in each group (25 points at the full). The groups wherein the total score was not more than 20 points were estimated to be effective. The number of the animals showing remission against catalepsy is the number of the mice for which the catalepsy score was not more than 4 points.

Structure (SMILES)	MLD [1] [mg/kg]	other results
CCCn1c(=O)c2c(nc(/C=C/c3ccc(OC)c(Br)c3)n2C)n(CCC)c1=O [Compound 56, (E)-8-(3-bromo-4-methoxystyryl)-7-methyl-1,3-dipropylxanthine]	> 100	–
CCCn1c(=O)c2c(nc(/C=C/c3ccc(OC)cc3OC)n2C)n(CCC)c1=O [Compound 25, (E)-8-(2,4-dimethoxystyryl)-7-methyl-1,3-dipropylxanthine]	> 300	inhibition in vivo at 10 mg/kg ([2]; Mus musculus, po, 1 h, rate of decrease in total score based on control group, read-out: Remission Rate (%)): 52%; Number of the Animals Showing Remission ([2]; of 5 mice, catalepsy score not more than 4 points): 5; Total Score ([2]; total catalepsy score of 5 mice (25 points at the full), 0.3% Tween 80 control 25): 12 points
CCCn1c(=O)c2[nH]c(/C=C/c3cc(C)c(OC)cc3C)nc2n(CCC)c1=O [Compound 44, (E)-8-(4-methoxy-2,5-dimethylstyryl)-1,3-dipropylxanthine]	> 300	–
CCCn1c(=O)c2c(nc(/C=C/c3cc(OC)c(OCc4ccccc4)c(OC)c3)n2C)n(CCC)c1=O [Compound 27, (E)-8-(4-benzyloxy-3,5-dimethoxystyryl)-7-methyl-1,3-dipropylxanthine]	> 100	–
CCCn1c(=O)c2c(nc(/C=C/c3cccc(F)c3)n2C)n(CCC)c1=O [Compound 37, (E)-8-(3-fluorostyryl)-7-methyl-1,3-dipropylxanthine]	> 100	–
CCCn1c(=O)c2[nH]c(/C=C/c3ccccc3Cl)nc2n(CCC)c1=O [Compound 40, (E)-8-(2-chlorostyryl)-1,3-dipropylxanthine]	> 100	–
CCCn1c(=O)c2c(nc(/C=C/c3ccc4c(c3)OCCO4)n2C)n(CCC)c1=O [Compound 17, (E)-8-[2-(1,4-benzodioxan-6-yl)vinyl]-7-methyl-1,3-dipropylxanthine]	> 300	–
CCCCOc1ccc(/C=C/c2nc3c(c(=O)n(CCC)c(=O)n3CCC)n2C)cc1 [Compound 52, (E)-8-(4-butoxystyryl)-7-methyl-1,3-dipropylxanthine]	> 100	–
CCCn1c(=O)c2c(nc(/C=C/c3ccccc3F)n2C)n(CCC)c1=O [Compound 43, (E)-8-(2-fluorostyryl)-7-methyl-1,3-dipropylxanthine]	> 100	–
CCCn1c(=O)c2c(nc(/C=C/c3cccc(OC)c3OC)n2C)n(CCC)c1=O [Compound 29, (E)-8-(2,3-dimethoxystyryl)-7-methyl-1,3-dipropylxanthine]	> 300	–
CCCn1c(=O)c2c(nc(/C=C/c3cc(OC)cc(OC)c3)n2C)n(CCC)c1=O [Compound 33, (E)-8-(3,5-dimethoxystyryl)-7-methyl-1,3-dipropylxanthine]	> 100	–
CCCn1c(=O)c2[nH]c(/C=C/c3cccc([N+](=O)[O-])c3)nc2n(CCC)c1=O [Compound 34, (E)-8-(3-nitrostyryl)-1,3-dipropylxanthine]	> 100	–
CCCCOc1ccc(/C=C/c2nc3c([nH]2)c(=O)n(CCC)c(=O)n3CCC)cc1 [Compound 51, (E)-8-(4-butoxystyryl)-1,3-dipropylxanthine]	> 100	–
CCCn1c(=O)c2c(nc(/C=C/c3cc(Br)c(OC)c(OC)c3)n2C)n(CCC)c1=O [Compound 60, (E)-8-(3-bromo-4,5-dimethoxystyryl)-7-methyl-1,3-dipropylxanthine]	> 100	–
CCCn1c(=O)c2c(nc(/C=C/c3ccc(OCC)c(OCC)c3)n2C)n(CCC)c1=O [Compound 54, (E)-8-(3,4-diethoxystyryl)-7-methyl-1,3-dipropylxanthine]	> 100	–
CCCn1c(=O)c2[nH]c(/C=C/c3ccc(OC)c4ccccc34)nc2n(CCC)c1=O [Compound 61, (E)-8-[2-(4-methoxynaphthyl)vinyl]-1,3-dipropylxanthine]	> 100	–
CCCn1c(=O)c2[nH]c(/C=C/c3ccccc3F)nc2n(CCC)c1=O [Compound 42, (E)-8-(2-fluorostyryl)-1,3-dipropylxanthine]	> 100	–
CCCn1c(=O)c2c(nc(/C=C/c3cc(C)c(OC)cc3C)n2C)n(CCC)c1=O [Compound 45, (E)-8-(4-methoxy-2,5-dimethylstyryl)-7-methyl-1,3-dipropylxanthine]	> 300	–
CCCn1c(=O)c2nc(/C=C/c3cccc(Cl)c3)[nH]c2n(CCC)c1=O [Compound 38, (E)-8-(3-chlorostyryl)-1,3-dipropylxanthine]	> 100	–
CCCn1c(=O)c2c(nc(/C=C/c3ccc(OC)c(O)c3)n2C)n(CCC)c1=O [Compound 63, (E)-8-(3-hydroxy-4-methoxystyryl)-7-methyl-1,3-dipropylxanthine]	> 100	–

Structure (SMILES)	MLD [1] [mg/kg]	other results
CCCn1c(=O)c2nc(/C=C/c3cc(OC)cc(OC)c3)[nH]c2n(CCC)c1=O [Compound 32, (E)-8-(3,5-dimethoxystyryl)-1,3-dipropylxanthine]	> 100	–
CCCn1c(=O)c2nc(/C=C/c3cccc(F)c3)[nH]c2n(CCC)c1=O [Compound 36, (E)-8-(3-fluorostyryl)-1,3-dipropylxanthine]	> 100	–
CCCn1c(=O)c2[nH]c(/C=C/c3ccc(OC)c(C)c3OC)nc2n(CCC)c1=O [Compound 14, (E)-8-(2,4-dimethoxy-3-methylstyryl)-1,3-dipropylxanthine]	> 100	–
CCCn1c(=O)c2[nH]c(/C=C/c3ccc(OC)c(C)c3C)nc2n(CCC)c1=O [Compound 12, (E)-8-(4-methoxy-2,3-dimethylstyryl)-1,3-dipropylxanthine]	> 300	–
CCCn1c(=O)c2[nH]c(/C=C/c3ccc(C)c(C)c3)nc2n(CCC)c1=O [Compound 30, (E)-8-(3,4-dimethylstyryl)-1,3-dipropylxanthine]	> 100	–
CCCn1c(=O)c2c(nc(/C=C/c3cccc([N+](=O)[O-])c3)n2C)n(CCC)c1=O [Compound 35, (E)-7-methyl-8-(3-nitrostyryl)-1,3-dipropylxanthine]	> 100	–
CCCn1c(=O)c2[nH]c(/C=C/c3cccc(OC)c3OC)nc2n(CCC)c1=O [Compound 28, (E)-8-(2,3-dimethoxystyryl)-1,3-dipropylxanthine]	> 100	–
CCCn1c(=O)c2[nH]c(/C=C/c3cc(OC)c(OCc4ccccc4)c(OC)c3)nc2n(CCC)c1=O [Compound 26, (E)-8-(4-benzyloxy-3,5-dimethoxystyryl)-1,3-dipropylxanthine]	> 100	–
CCCn1c(=O)c2[nH]c(/C=C/c3ccc(OC)c(Br)c3)nc2n(CCC)c1=O [Compound 55, (E)-8-(3-bromo-4-methoxystyryl)-1,3-dipropylxanthine]	> 100	–
CCCn1c(=O)c2c(nc(/C=C/c3cccc(Cl)c3)n2C)n(CCC)c1=O [Compound 39, (E)-8-(3-chlorostyryl)-7-methyl-1,3-dipropylxanthine]	> 100	–
CCCn1c(=O)c2c(nc(/C=C/c3ccc(OC)c4ccccc34)n2C)n(CCC)c1=O [Compound 62, (E)-8-[2-(4-methoxynaphthyl)vinyl]-7-methyl-1,3-dipropylxanthine]	> 100	–
CCCn1c(=O)c2c(nc(/C=C/c3cc(OC)c(OC)cc3Br)n2C)n(CCC)c1=O [Compound 58, (E)-8-(2-bromo-4,5-dimethoxystyryl)-7-methyl-1,3-dipropylxanthine]	> 300	–
CCCn1c(=O)c2[nH]c(/C=C/c3ccc(OCC)cc3)nc2n(CCC)c1=O [Compound 47, (E)-8-(4-ethoxystyryl)-1,3-dipropylxanthine]	> 100	–
CCCn1c(=O)c2[nH]c(/C=C/c3cc(OC)c(OC)cc3Br)nc2n(CCC)c1=O [Compound 57, (E)-8-(2-bromo-4,5-dimethoxystyryl)-1,3-dipropylxanthine]	> 300	–
CCCOc1ccc(/C=C/c2nc3c([nH]2)c(=O)n(CCC)c(=O)n3CCC)cc1 [Compound 49, (E)-8-(4-propoxystyryl)-1,3-dipropylxanthine]	> 100	–
CCCn1c(=O)c2c(nc(/C=C\c3ccc(OC)c(OC)c3)n2C)n(CCC)c1=O [Compound 46, (Z)-8-(3,4-dimethoxystyryl)-7-methyl-1,3-dipropylxanthine]	> 300	–
CCCn1c(=O)c2c(nc(/C=C/c3ccccc3Cl)n2C)n(CCC)c1=O [Compound 41, (E)-8-(2-chlorostyryl)-7-methyl-1,3-dipropylxanthine]	> 100	–
CCCn1c(=O)c2nc(/C=C/c3cc(OC)c(OC)cc3OC)[nH]c2n(CCC)c1=O [Compound 22, (E)-1,3-dipropyl-8-(2,4,5-trimethoxystyryl)-xanthine]	> 300	–
CCCn1c(=O)c2c(nc(/C=C/c3ccc(OC)c(OC)c3OC)n2C)n(CCC)c1=O [Compound 21, (E)-7-methyl-1,3-dipropyl-8-(2,3,4-trimethoxystyryl)xanthine]	> 300	–
